Drawing on PubChem BioAssay (NCI), this text covers TGI for nine molecules.

Holding throughout (test): growth of human tumour cells (NCI), 48 h
The subject of assay [1] is T-47D breast.
In assay [2] the test system is SNB-19 CNS.
Assay [3] has as its system PC-3 prostate.
The test system of assay [4] is OVCAR-8 ovarian.
Assay [5] deals with NCI-H522 lung.
Assay [6] relates to A549 NSCLC.
The subject of assay [7] is SW-620 colon.
In assay [8] the test system is UACC-62 melanoma.
Assay [9] concerns COLO 205 colon.
Assay [10] deals with 786-0 renal.
The subject of assay [11] is SN12C renal.
Assay [12] deals with K-562 leukemia.
Assay [13] concerns EKVX NSCLC.
Assay [14] concerns UO-31 renal.
The test system of assay [15] is SF-539 CNS.

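Each compound was tested at five concentrations against cells in 96-well plates for 48 hours. At the TGI there is no net growth.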

Take `CC(C)(C)Cc1cc(O)ccc1O`: the TGI is above 100 µM in assay [1]; above 100 µM in assay [2]; above 100 µM in assay [3]; above 100 µM in [4]; 86.7 µM in assay [5]; above 100 µM in assay [6]. In addition, the TGI in assay [7], in assay [8], in [9], in assay [10], in assay [11] and in assay [12] was above 100 µM in each case. Also, the TGI in assay [13], in assay [14] and in assay [15] was above 100 µM throughout.
Turning to `C=CC[C@@]12CCC(=O)C=C1CCCC2=O`, the TGI in assay [1], in [2], in [3], in assay [5], in assay [6] and in assay [7] was above 100 µM each time. The TGI in [8], in assay [9], in assay [10], in assay [11], in assay [12] and in [13] was above 100 µM throughout. Besides, the TGI in assay [14] and in assay [15] was above 100 µM each time.
Consider `COc1ccc2c(c1)C1c3ccccc3CCN1CCC2` (stereo not drawn), for which the TGI is above 100 µM in [1]; above 100 µM in [2]; above 100 µM in assay [3]; above 100 µM in [4]; 98.1 µM in assay [5]; above 100 µM in assay [6]. Further, the TGI in assay [7], in [8], in assay [9], in [10], in [11] and in [12] was above 100 µM in each case. Also, the TGI in assay [13], in assay [14] and in [15] was above 100 µM throughout.
In the case of `Nc1ncnc2c1ncn2[C@@H]1C[C@H](NO)[C@@H](O)[C@H]1O`, the TGI in assay [1], in [2], in assay [3], in [4], in assay [5] and in [6] was above 100 µM in each case. Further, the TGI in assay [7], in [8], in [9], in assay [10], in [11] and in assay [12] was above 100 µM each time. Also, the TGI in [13], in assay [14] and in [15] was above 100 µM in each case.
As for `COC(=O)/C=C/c1ccc2c(c1)[C@H](C(=O)OC)[C@@H](c1ccc(O)cc1)O2`, the TGI was above 100 µM in [1]; above 100 µM in assay [2]; above 100 µM in assay [3]; above 100 µM in assay [4]; 74.2 µM in assay [5]; above 100 µM in assay [6]. Besides, the TGI in [7] was above 100 µM; in [8], above 100 µM; in assay [9], 89.4 µM; in assay [10], above 100 µM; in assay [11], above 100 µM; in assay [12], above 100 µM. Further, the values for the TGI in [13], in [14] and in [15] were above 100 µM, 70 µM and above 100 µM, respectively.
As to `COC(=O)/C(C#N)=C(/NCc1ccccc1)Nc1ccccc1`, the TGI in assay [1], in assay [2], in assay [3], in [4], in assay [5] and in assay [6] was above 100 µM throughout. Also, the TGI in [7], in assay [9], in assay [10], in assay [11], in assay [12] and in assay [13] was above 100 µM throughout. Also, the TGI in [14] and in assay [15] was above 100 µM in each case.
In the case of `COc1ccc(C(c2cc(OC)c(OC)c(OC)c2)N2C(=O)CCC2C(=O)O)cc1` (stereo not drawn), the TGI in assay [1], in [2], in assay [3], in assay [4], in assay [5] and in assay [6] was above 100 µM in each case. Also, the TGI in assay [7], in assay [8], in assay [9], in assay [10], in assay [11] and in assay [12] was above 100 µM throughout. Besides, the figures for the TGI in assay [13], in assay [14] and in assay [15] were above 100 µM, above 100 µM and 52 µM, respectively.
As for `CC(C)N(C(=O)C12C3(C(=O)C(C)(C)C)C4C5(C#N)C3C1(C(=O)C(C)(C)C)C5C42C(=O)C(C)(C)C)C(C)C` (stereo not drawn), the TGI in assay [1], in assay [2], in assay [3], in assay [4], in [5] and in assay [6] was above 100 µM throughout. In addition, the TGI in assay [7], in [8], in assay [9], in assay [10], in assay [11] and in assay [12] was above 100 µM in each case. Also, the TGI in assay [13], in assay [14] and in [15] was above 100 µM in each case.
Take `[O-]/[N+](=N/c1ncc(-c2ccccc2)cn1)c1ncc(-c2ccccc2)cn1`: the TGI in assay [1] is above 100 µM; in assay [2] it was above 100 µM; in assay [3], above 100 µM; in assay [4], above 100 µM; in [5], 32.3 µM; in [6], above 100 µM. Further, the TGI in assay [7], in assay [8], in assay [9], in assay [10], in [11] and in [12] was above 100 µM each time. Besides, the TGI in assay [13], in assay [14] and in assay [15] was above 100 µM each time.
